Measurements as given in the supplement of paper PMC11208160.

Assay: recombinant UMI read abundance after kanamycin selection (control-corrected) (log10(CPM+1)); higher = more efficient recombination; extreme values may be limits of the assay; sequences stand for … in AGTGCAGAGAAAATCGGCCAGTTTTCTCTGCCTGCAGTCCGCATGCCGTGGGACCCCTTGGGTTCTAACCTGTTGCCTAGATTTATGCAGCGGACTGCCTTTCTCCCAAAGTGATAAACCGG…AGGTTGGTTTCACT; site = the 11-nt donor
Summary of the method: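 Sequencing read counts were converted to CPM, averaged over two replicates and scaled by control-derived factors. Results are given as log10(CPM+1). The reads covered the donor–target junction of recombinant UMIs from a pooled Escherichia coli screen of donor and donor-binding-loop pairs for the IS621 bridge recombinase.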
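Further: IS621 bridge recombinase in Escherichia coli cells against a fixed T5 target plasmid.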

| Sequence | recombinant UMI read abundance (log10) |
| --- | --- |
| TCTAAATCATGGACCGGTTTTCCCGGTAATCCGTATTTGTT (site TCTAAATCTAA) | 0 |
| TCTAAGACATGGACCGGTTTTCCCGGTAATCCGTATTTGTG (site TCTAAGACTCA) | 0.00606 |
| TCTAAGGCATGGACCGGTTTTCCCGGTAATCCGTATTTGGT (site TCTAAGGCTAC) | 0.43 |
| TCTACACCATGGACCGGTTTTCCCGGTAATCCGTATTTGGT (site TCTACACCTAC) | 0.00817 |
| TCTGAAACATGGACCGGTTTTCCCGGTAATCCGTATTTGTG (site TCTGAAACTCA) | 0.00806 |
| TCTGAGACATGGACCGGTTTTCCCGGTAATCCGTATTTGCC (site TCTGAGACTGG) | 0.0914 |
| TCTGAGACATGGACCGGTTTTCCCGGTAATCCGTATTTGCG (site TCAGAGACTCG) | 0 |
| TCTGAGACATGGACCGGTTTTCCCGGTAATCCGTATTTGCG (site TCCGAGACTCG) | 0.022 |
| TCTGAGACATGGACCGGTTTTCCCGGTAATCCGTATTTGCG (site TCGGAGACTCG) | 0.285 |
| TCTGAGACATGGACCGGTTTTCCCGGTAATCCGTATTTGCG (site TCTGAGACTCG) | 0.476 |
| TCTGCAGCATGGACCGGTTTTCCCGGTAATCCGTATTTGTA (site TCTGCAGCTTA) | 0 |
| TCTGCCCCATGGACCGGTTTTCCCGGTAATCCGTATTTGGG (site TCTGCCCCTCC) | 0.00716 |
| TCTGCCGCATGGACCGGTTTTCCCGGTAATCCGTATTTGAG (site TCTGCCGCTCT) | 0.0275 |
| TCTGGATCATGGACCGGTTTTCCCGGTAATCCGTATTTGCT (site TCTGGATCTAG) | 0 |
| TCTGGGTCATGGACCGGTTTTCCCGGTAATCCGTATTTGTT (site TCTGGGTCTAA) | 0.167 |
| TCTGGTCCATGGACCGGTTTTCCCGGTAATCCGTATTTGAG (site TCTGGTCCTCT) | 0.00736 |
| TCTGTCGCATGGACCGGTTTTCCCGGTAATCCGTATTTGGC (site TCTGTCGCTGC) | 0.00952 |
| TCTGTGGCATGGACCGGTTTTCCCGGTAATCCGTATTTGAC (site TCTGTGGCTGT) | 0 |
| TCTTCGACATGGACCGGTTTTCCCGGTAATCCGTATTTGAG (site TCTTCGACTCT) | 0.0148 |
| TCTTCTTCATGGACCGGTTTTCCCGGTAATCCGTATTTGAA (site TCTTCTTCTTT) | 0.00225 |
| TGAAAGGCATGGACCGGTTTTCCCGGTAATCCGTATTTGCT (site AGAAAGGCTAG) | 0.855 |
| TGAAAGGCATGGACCGGTTTTCCCGGTAATCCGTATTTGCT (site CGAAAGGCTAG) | 0.708 |
| TGAAAGGCATGGACCGGTTTTCCCGGTAATCCGTATTTGCT (site GGAAAGGCTAG) | 0 |

| Sequence | recombinant UMI read abundance (log10) |
| --- | --- |
| TGAAAGGCATGGACCGGTTTTCCCGGTAATCCGTATTTGCT (site TGAAAGGCTAG) | 2.34 |
| TGAAGAACATGGACCGGTTTTCCCGGTAATCCGTATTTGGC (site TGAAGAACTGC) | 2.29 |
| TGAAGTCCATGGACCGGTTTTCCCGGTAATCCGTATTTGTA (site TAAAGTCCTTA) | 0.00928 |
| TGAAGTCCATGGACCGGTTTTCCCGGTAATCCGTATTTGTA (site TCAAGTCCTTA) | 1.44 |
| TGAAGTCCATGGACCGGTTTTCCCGGTAATCCGTATTTGTA (site TGAAGTCCTTA) | 0.591 |
| TGAAGTCCATGGACCGGTTTTCCCGGTAATCCGTATTTGTA (site TTAAGTCCTTA) | 0.888 |
| TGAATACCATGGACCGGTTTTCCCGGTAATCCGTATTTGTC (site TGAATACCTGA) | 0 |
| TGAATTTCATGGACCGGTTTTCCCGGTAATCCGTATTTGAG (site TGAATTTCTCT) | 0.492 |
| TGACCATCATGGACCGGTTTTCCCGGTAATCCGTATTTGCT (site CGATCATCTAG) | 0 |
| TGACCATCATGGACCGGTTTTCCCGGTAATCCGTATTTGCT (site TGACCATCTAG) | 2.24 |
| TGACCGGCATGGACCGGTTTTCCCGGTAATCCGTATTTGGG (site TGACCGGCTCC) | 0.00617 |
| TGACGTACATGGACCGGTTTTCCCGGTAATCCGTATTTGTC (site TGACGTACTGA) | 0.893 |
| TGAGAACCATGGACCGGTTTTCCCGGTAATCCGTATTTGAT (site GACATTGCTCA) | 0.0061 |
| TGAGCCTCATGGACCGGTTTTCCCGGTAATCCGTATTTGAC (site TGAGCCTCTGT) | 2.84 |
| TGAGCTGCATGGACCGGTTTTCCCGGTAATCCGTATTTGTG (site TAAGCTGCTCA) | 0.038 |
| TGAGCTGCATGGACCGGTTTTCCCGGTAATCCGTATTTGTG (site TCAGCTGCTCA) | 0 |
| TGAGCTGCATGGACCGGTTTTCCCGGTAATCCGTATTTGTG (site TGAGCTGCTCA) | 0.639 |
| TGAGCTGCATGGACCGGTTTTCCCGGTAATCCGTATTTGTG (site TTAGCTGCTCA) | 0.0107 |
| TGAGGTCCATGGACCGGTTTTCCCGGTAATCCGTATTTGGA (site TGAGGTCCTTC) | 0.172 |
| TGAGTAGCATGGACCGGTTTTCCCGGTAATCCGTATTTGTA (site TGAGTAGCTTA) | 2.48 |
| TGAGTGGCATGGACCGGTTTTCCCGGTAATCCGTATTTGGT (site AGAGTGGCTAC) | 0.339 |
| TGAGTGGCATGGACCGGTTTTCCCGGTAATCCGTATTTGGT (site CGAGTGGCTAC) | 0.605 |
| TGAGTGGCATGGACCGGTTTTCCCGGTAATCCGTATTTGGT (site GGAGTGGCTAC) | 0.0161 |

| Sequence | recombinant UMI read abundance (log10) |
| --- | --- |
| TGAGTGGCATGGACCGGTTTTCCCGGTAATCCGTATTTGGT (site TGAGTGGCTAC) | 0.902 |
| TGAGTTGCATGGACCGGTTTTCCCGGTAATCCGTATTTGCA (site TGAGTTGCTTG) | 1.47 |
| TGATAGCCATGGACCGGTTTTCCCGGTAATCCGTATTTGAG (site TGATAGCCTCT) | 0.0234 |
| TGATAGCCATGGACCGGTTTTCCCGGTAATCCGTATTTGGA (site TGATAGCCTTC) | 0.0136 |
| TGATAGGCATGGACCGGTTTTCCCGGTAATCCGTATTTGGT (site TGATAGGCTAC) | 0.902 |
| TGATAGGCATGGACCGGTTTTCCCGGTAATCCGTATTTGGT (site TGCTAGGCTAC) | 0.0143 |
| TGATAGGCATGGACCGGTTTTCCCGGTAATCCGTATTTGGT (site TGGTAGGCTAC) | 0.0189 |
| TGATAGGCATGGACCGGTTTTCCCGGTAATCCGTATTTGGT (site TGTTAGGCTAC) | 0.02 |
| TGATCATCATGGACCGGTTTTCCCGGTAATCCGTATTTGGT (site CGATCATCTAG) | 0 |
| TGATCATCATGGACCGGTTTTCCCGGTAATCCGTATTTGGT (site TGATCATCTAC) | 1.42 |
| TGCAAGTCATGGACCGGTTTTCCCGGTAATCCGTATTTGGC (site TGCAAGTCTGC) | 2.11 |
| TGCACACCATGGACCGGTTTTCCCGGTAATCCGTATTTGAC (site TGAACACCTGT) | 0 |
| TGCACACCATGGACCGGTTTTCCCGGTAATCCGTATTTGAC (site TGCACACCTGT) | 0.51 |
| TGCACACCATGGACCGGTTTTCCCGGTAATCCGTATTTGAC (site TGGACACCTGT) | 0 |
| TGCACACCATGGACCGGTTTTCCCGGTAATCCGTATTTGAC (site TGTACACCTGT) | 0 |
| TGCAGGGCATGGACCGGTTTTCCCGGTAATCCGTATTTGCC (site TGCAGGGCTGG) | 1.82 |
| TGCAGTGCATGGACCGGTTTTCCCGGTAATCCGTATTTGTT (site TGCAGTGCTAA) | 0.416 |
| TGCCCCACATGGACCGGTTTTCCCGGTAATCCGTATTTGAC (site TGCCCCACTGT) | 1.39 |
| TGCCGGCCATGGACCGGTTTTCCCGGTAATCCGTATTTGCC (site TGCCGGCCTGG) | 0 |
| TGCCGGCCATGGACCGGTTTTCCCGGTAATCCGTATTTGGA (site TGCCGGCCTTC) | 0.0137 |
| TGCCTTTCATGGACCGGTTTTCCCGGTAATCCGTATTTGAC (site AGCCTTTCTGT) | 0 |
| TGCCTTTCATGGACCGGTTTTCCCGGTAATCCGTATTTGAC (site CGCCTTTCTGT) | 0 |
